This is an account of results in patent US9587005B2 (priority 2010, dated 2017).

Type in all cases: cell-based
In one assay the target is T1, glucagon receptor (Homo sapiens, UniProt P47871).
T1 construct: expressed in transfected cells; host or cells: HEK293
Description: cAMP induction, firefly luciferase reporter assay in HEK293 cells co-transfected with glucagon receptor. The source says:
(§1) This example describes an exemplary method of testing the biological activity of the peptides of the present disclosures, which method involves assaying cAMP synthesis.

The target in a further assay is T2, GLP-1 receptor (Homo sapiens, UniProt P43220).
T2 construct: expressed in transfected cells; host or cells: HEK293
T2 sequence (P43220 24-463): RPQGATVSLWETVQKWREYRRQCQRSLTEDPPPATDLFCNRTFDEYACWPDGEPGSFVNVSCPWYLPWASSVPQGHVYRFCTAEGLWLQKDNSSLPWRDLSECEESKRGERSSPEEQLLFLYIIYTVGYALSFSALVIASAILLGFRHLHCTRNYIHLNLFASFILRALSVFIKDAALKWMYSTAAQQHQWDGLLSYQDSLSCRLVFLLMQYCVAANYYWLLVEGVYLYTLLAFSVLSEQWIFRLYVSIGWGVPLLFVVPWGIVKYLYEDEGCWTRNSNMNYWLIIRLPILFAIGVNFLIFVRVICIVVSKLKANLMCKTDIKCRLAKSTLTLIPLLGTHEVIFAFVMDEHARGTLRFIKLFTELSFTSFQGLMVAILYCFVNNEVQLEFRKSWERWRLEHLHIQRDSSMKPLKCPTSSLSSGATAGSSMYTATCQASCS
Description: cAMP induction, firefly luciferase reporter assay in HEK293 cells co-transfected with GLP-1 receptor.
Source text: as §1

A further assay addresses T3, GIP receptor (Homo sapiens, UniProt P48546).
T3 sequence (P48546 22-466): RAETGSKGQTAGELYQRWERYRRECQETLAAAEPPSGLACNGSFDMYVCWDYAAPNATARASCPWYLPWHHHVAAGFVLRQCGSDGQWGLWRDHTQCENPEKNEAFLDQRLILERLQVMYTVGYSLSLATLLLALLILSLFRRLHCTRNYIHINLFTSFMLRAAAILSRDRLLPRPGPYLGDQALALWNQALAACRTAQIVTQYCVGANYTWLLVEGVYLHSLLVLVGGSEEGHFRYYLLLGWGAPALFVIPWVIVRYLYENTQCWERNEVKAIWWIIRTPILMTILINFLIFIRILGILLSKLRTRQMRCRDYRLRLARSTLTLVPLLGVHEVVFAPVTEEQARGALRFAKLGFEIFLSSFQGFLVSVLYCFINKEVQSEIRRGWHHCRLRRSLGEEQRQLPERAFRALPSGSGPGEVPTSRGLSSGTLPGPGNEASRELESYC
Briefly: cAMP induction, firefly luciferase reporter assay in HEK293 cells co-transfected with GIP receptor.

The mark [1] stands for this setting: EC50 (nM) at Glucagon Receptor, Table 4, Example 9, composite of multiple different activity assays.
The mark [2] stands for this setting: EC50 (nM) at GLP-1 Receptor, Table 4, Example 9, composite of multiple different activity assays.
[3] abbreviates: EC50 (nM) at GIP Receptor, Table 4, Example 9, composite of multiple different activity assays.
[4] abbreviates: EC50 (cAMP, nmole) GIPR, Table 12, Example 19.
[5] abbreviates: Table 3, relative to the activity of the native hormone.

Read-outs that look alike come from different tables or passages of the source. *1 amine or outer side, *2 acyl side, *3 side chain or, on linkers, in order; H or OH if unused. Where a SMILES comes first, the peptide text is derived from it. Where no end group is shown, it is not given here. Side-chain parts run from the residue outwards. [ ]: non-standard residue; d: D form. The star is where a group is joined. X5 = CCCCCCCCCCCCCCCC(=O)N[C@@H](CCC(=O)NCCCC[C@H](NC(=O)CC[C@H](NC(=O)CCCCCCCCCCCCCCC)C(=O)O)C(=O)*)C(=O)O; Phe(4-NH2) = Nc1ccc(C[C@H](N)C(=O)O)cc1; γGlu = O=C(O)[C@H](CCC(=O)[*:2])N[*:1]; Palmitoyl = CCCCCCCCCCCCCCCC(=O)*; Aib = CC(C)(N)C(=O)O

T1 sequence (P47871 26-477): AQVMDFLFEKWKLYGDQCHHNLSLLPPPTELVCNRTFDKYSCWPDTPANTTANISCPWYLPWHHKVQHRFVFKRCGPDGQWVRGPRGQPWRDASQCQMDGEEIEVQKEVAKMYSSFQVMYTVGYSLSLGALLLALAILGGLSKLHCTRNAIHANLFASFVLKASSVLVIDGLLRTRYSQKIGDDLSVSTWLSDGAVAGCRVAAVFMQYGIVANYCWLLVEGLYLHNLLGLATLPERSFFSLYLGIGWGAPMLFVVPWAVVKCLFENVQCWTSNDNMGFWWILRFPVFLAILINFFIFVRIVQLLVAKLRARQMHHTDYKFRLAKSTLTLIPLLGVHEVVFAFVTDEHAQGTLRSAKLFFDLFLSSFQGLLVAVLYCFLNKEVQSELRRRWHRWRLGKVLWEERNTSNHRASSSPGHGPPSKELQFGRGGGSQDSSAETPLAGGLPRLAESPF

Regarding `CCCCCCCCCCCCCCCC(=O)N[C@@H](CCC(=O)NCCCC[C@H](NC(=O)[C@H](CC(=O)O)NC(=O)[C@H](CO)NC(=O)[C@@H](NC(=O)[C@H](Cc1ccccc1)NC(=O)[C@@H](NC(=O)CNC(=O)[C@H](CCC(N)=O)NC(=O)C(C)(C)NC(=O)[C@@H](N)Cc1c[nH]cn1)[C@@H](C)O)[C@@H](C)O)C(=O)N[C@@H](CO)C(=O)N[C@@H](CCCCN)C(=O)N[C@@H](Cc1ccc(O)cc1)C(=O)N[C@@H](CC(C)C)C(=O)N[C@@H](CC(=O)O)C(=O)N[C@@H](CCC(=O)O)C(=O)N[C@@H](CCCNC(=N)N)C(=O)N[C@@H](C)C(=O)N[C@@H](C)C(=O)N[C@@H](CCC(N)=O)C(=O)N[C@@H](CC(=O)O)C(=O)N[C@@H](Cc1ccccc1)C(=O)N[C@H](C(=O)N[C@@H](CCC(N)=O)C(=O)N[C@@H](Cc1c[nH]c2ccccc12)C(=O)N[C@@H](CC(C)C)C(=O)N[C@@H](CC(C)C)C(=O)N[C@@H](CC(=O)O)C(=O)NCC(=O)NCC(=O)N1CCC[C@H]1C(=O)N[C@@H](CO)C(=O)N[C@@H](CO)C(=O)NCC(=O)N[C@@H](C)C(=O)N1CCC[C@H]1C(=O)N1CCC[C@H]1C(=O)N1CCC[C@H]1C(=O)N[C@@H](CO)C(N)=O)C(C)C)C(=O)O` [compound 28], the EC50 at glucagon receptor (setting [1]) was found to be 0.002 nM; at glucagon receptor (EC50 (nM) at Glucagon Receptor, Table 7, Example 13), 0.002 nM; on GLP-1 receptor (setting [2]), 0.002 nM; on GLP-1 receptor (EC50 (nM) at GLP-1 Receptor, Table 7, Example 13) it was 0.002 nM; on GIP receptor (setting [3]) it was 0.003 nM; on GIP receptor (EC50 (nM) at GIP Receptor, Table 7, Example 13), 0.003 nM.
On to `CCCCCCCCCCCCCCCC(=O)N[C@@H](CCC(=O)NCCCC[C@H](NC(=O)CC[C@H](NC(=O)CCCCCCCCCCCCCCC)C(=O)O)C(=O)NCCCC[C@H](NC(=O)[C@H](CO)NC(=O)[C@@H]1CCCN1C(=O)[C@@H]1CCCN1C(=O)[C@@H]1CCCN1C(=O)[C@H](C)NC(=O)CNC(=O)[C@H](CO)NC(=O)[C@H](CO)NC(=O)[C@@H]1CCCN1C(=O)CNC(=O)CNC(=O)[C@H](CC(=O)O)NC(=O)[C@H](CC(C)C)NC(=O)[C@H](CC(C)C)NC(=O)[C@H](Cc1c[nH]c2ccccc12)NC(=O)[C@H](CCC(N)=O)NC(=O)[C@@H](NC(=O)[C@H](Cc1ccccc1)NC(=O)[C@H](CC(=O)O)NC(=O)[C@H](CCC(N)=O)NC(=O)[C@H](C)NC(=O)[C@H](C)NC(=O)[C@H](CCCNC(=N)N)NC(=O)[C@H](CCC(=O)O)NC(=O)[C@H](CC(=O)O)NC(=O)[C@H](CC(C)C)NC(=O)[C@H](Cc1ccc(O)cc1)NC(=O)[C@H](CCCCN)NC(=O)[C@H](CO)NC(=O)[C@H](Cc1ccc(O)cc1)NC(=O)[C@H](CC(=O)O)NC(=O)[C@H](CO)NC(=O)[C@@H](NC(=O)[C@H](Cc1ccccc1)NC(=O)[C@@H](NC(=O)CNC(=O)[C@H](CCC(N)=O)NC(=O)C(C)(C)NC(=O)[C@@H](N)Cc1c[nH]cn1)[C@@H](C)O)[C@@H](C)O)C(C)C)C(N)=O)C(=O)O` [SEQ ID NO: 161] (H-H[Aib]QGTFTSDYSKYLDERAAQDFVQWLLDGGPSSGAPPPSK(X5)-NH2), for which the EC50 on glucagon receptor (Table 12, Example 19, read-out: EC50 (cAMP, nmole) GCGR) worked out at 0.011 nM; at GLP-1 receptor (Table 12, Example 19, read-out: EC50 (cAMP, nmole) GLPR), 0.007 nM; at GIP receptor (setting [4]), 0.01 nM.
Regarding `CCCCCCCCCCCCCCCC(=O)N[C@@H](CCC(=O)Nc1ccc(C[C@H](NC(=O)[C@@H](NC(=O)CNC(=O)[C@H](CCC(N)=O)NC(=O)C(C)(C)NC(=O)[C@@H](N)Cc2c[nH]cn2)[C@@H](C)O)C(=O)N[C@H](C(=O)N[C@@H](CO)C(=O)N[C@@H](CC(=O)O)C(=O)N[C@@H](Cc2ccc(O)cc2)C(=O)N[C@@H](CO)C(=O)N[C@@H](CCCCN)C(=O)N[C@@H](Cc2ccc(O)cc2)C(=O)N[C@@H](CC(C)C)C(=O)N[C@@H](CC(=O)O)C(=O)N[C@@H](CCC(=O)O)C(=O)N[C@@H](CCCNC(=N)N)C(=O)N[C@@H](C)C(=O)N[C@@H](C)C(=O)N[C@@H](CCC(N)=O)C(=O)N[C@@H](CC(=O)O)C(=O)N[C@@H](Cc2ccccc2)C(=O)N[C@H](C(=O)N[C@@H](CCC(N)=O)C(=O)N[C@@H](Cc2c[nH]c3ccccc23)C(=O)N[C@@H](CC(C)C)C(=O)N[C@@H](CC(C)C)C(=O)N[C@@H](CC(=O)O)C(=O)NCC(=O)NCC(=O)N2CCC[C@H]2C(=O)N[C@@H](CO)C(=O)N[C@@H](CO)C(=O)NCC(=O)N[C@@H](C)C(=O)N2CCC[C@H]2C(=O)N2CCC[C@H]2C(=O)N2CCC[C@H]2C(=O)N[C@@H](CO)C(N)=O)C(C)C)[C@@H](C)O)cc1)C(=O)O` [SEQ ID NO: 147] (H-H[Aib]QGT[Phe(4-NH2)]([γGlu-Palmitoyl])TSDYSKYLDERAAQDFVQWLLDGGPSSGAPPPS-NH2; N-terminus assumed), the 50% effective concentration (EC50) on glucagon receptor (Glucagon Receptor EC50, Table 10, Example 16) amounted to 0.246 nM; at GLP-1 receptor (GLP-1 Receptor EC50, Table 10, Example 16) it was 0.004 nM; on GIP receptor (Table 10, Example 16, read-out: GIP-1 Receptor EC50), 3.13 nM.
On to `CCCCCCCCCCCCCCCC(=O)N[C@@H](CCC(=O)NCCCC[C@H](NC(=O)[C@H](CC(=O)O)NC(=O)[C@H](CO)NC(=O)[C@@H](NC(=O)[C@H](Cc1ccccc1)NC(=O)[C@@H](NC(=O)CNC(=O)[C@H](CCC(=O)O)NC(=O)C(C)(C)NC(=O)[C@@H](N)Cc1c[nH]cn1)[C@@H](C)O)[C@@H](C)O)C(=O)N[C@@H](CO)C(=O)N[C@@H](CCCCN)C(=O)N[C@@H](Cc1ccc(O)cc1)C(=O)N[C@@H](CC(C)C)C(=O)N[C@@H](CC(=O)O)C(=O)N[C@@H](CCC(=O)O)C(=O)N[C@@H](CCCNC(=N)N)C(=O)N[C@@H](C)C(=O)N[C@@H](C)C(=O)N[C@@H](CCC(N)=O)C(=O)N[C@@H](CC(=O)O)C(=O)N[C@@H](Cc1ccccc1)C(=O)N[C@H](C(=O)N[C@@H](CCC(N)=O)C(=O)N[C@@H](Cc1c[nH]c2ccccc12)C(=O)N[C@@H](CC(C)C)C(=O)N[C@@H](CC(C)C)C(=O)N[C@@H](CC(=O)O)C(=O)NCC(=O)NCC(=O)N1CCC[C@H]1C(=O)N[C@@H](CO)C(=O)N[C@@H](CO)C(=O)NCC(=O)N[C@@H](C)C(=O)N1CCC[C@H]1C(=O)N1CCC[C@H]1C(=O)N1CCC[C@H]1C(=O)N[C@@H](CO)C(N)=O)C(C)C)C(=O)O` [compound 39] (H-H[Aib]EGTFTSDK([γGlu-Palmitoyl])SKYLDERAAQDFVQWLLDGGPSSGAPPPS-NH2; N-terminus assumed), for which the EC50 worked out at 1.28 nM at glucagon receptor (setting [1]), 0.008 nM at GLP-1 receptor (setting [2]) and 0.026 nM at GIP receptor (setting [3]).
Regarding “H[Aib]QGTFTSDYSKYLDERAAQDFVQWLLDGGPSSGAPPPSK([γGlu-γGlu-Palmitoyl])G-NH2 [SEQ ID NO: 89]”, the concentration giving a half-maximal response (EC50) was found to be 0.006 nM on glucagon receptor (EC50 (nM) at glucagon receptor, Table 16, Example 24); 0.004 nM on GLP-1 receptor (EC50 (nM) at GLP-1 receptor, Table 15, Example 23); 0.005 nM on GLP-1 receptor (EC50 (nM) at GLP-1 receptor, Table 16, Example 24); 0.028 nM at GIP receptor (EC50 (nM) at GIP receptor, Table 16, Example 24).
Turning to “Example 8 peptide: Tyr1, AIB2, Glu16/Lys20 lactam, Leu-Ala-Gly 27-29, GPSSGAPPPS 30-39, or a peptide lacking a lactam [mt-218]”, the GR relative activity on glucagon receptor (setting [5]) is 0.70%. Besides, the EC50 at GLP-1 receptor (Table 3, Example 8, read-out: GLP-1R EC50) is 0.338 nM; at GIP receptor (Table 3, Example 8, read-out: GIPR EC50), 14.3 nM. The compound further yielded a GLP-1R relative activity at GLP-1 receptor (setting [5]) of 7.40%. Moreover, the GIPR relative activity at GIP receptor (setting [5]) amounted to 0.13%.
On to `CCCCCCCCCCCCCCCC(=O)N[C@@H](CCC(=O)NCCCCCCCCCCCC(=O)NCCCC[C@H](NC(=O)[C@H](CC(=O)O)NC(=O)[C@H](CO)NC(=O)[C@@H](NC(=O)[C@H](Cc1ccccc1)NC(=O)[C@@H](NC(=O)CNC(=O)[C@H](CCC(N)=O)NC(=O)C(C)(C)NC(=O)[C@@H](N)Cc1c[nH]cn1)[C@@H](C)O)[C@@H](C)O)C(=O)N[C@@H](CO)C(=O)N[C@@H](CCCCN)C(=O)N[C@@H](Cc1ccc(O)cc1)C(=O)N[C@@H](CC(C)C)C(=O)N[C@@H](CC(=O)O)C(=O)N[C@@H](CCC(=O)O)C(=O)N[C@@H](CCCNC(=N)N)C(=O)N[C@@H](C)C(=O)N[C@@H](C)C(=O)N[C@@H](CCC(N)=O)C(=O)N[C@@H](CC(=O)O)C(=O)N[C@@H](Cc1ccccc1)C(=O)N[C@H](C(=O)N[C@@H](CCC(N)=O)C(=O)N[C@@H](Cc1c[nH]c2ccccc12)C(=O)N[C@@H](CC(C)C)C(=O)N[C@@H](CC(C)C)C(=O)N[C@@H](CC(=O)O)C(=O)NCC(=O)NCC(=O)N1CCC[C@H]1C(=O)N[C@@H](CO)C(=O)N[C@@H](CO)C(=O)NCC(=O)N[C@@H](C)C(=O)N1CCC[C@H]1C(=O)N1CCC[C@H]1C(=O)N1CCC[C@H]1C(=O)N[C@@H](CO)C(N)=O)C(C)C)C(=O)O` [SEQ ID NO: 162], for which the EC50 at glucagon receptor was determined as 0.008 nM; at GLP-1 receptor (EC50 (cAMP, nmole) GLPR, Table 12, Example 19) it was 0.003 nM; on GIP receptor (setting [4]), 0.033 nM.
